Measured values as given in a melting point compilation (Tetko et al.; mined from patent text by program, amines drawn as free bases though some values may be those of a salt).

Compound | melting point [°C]
Cn1nc(-c2c(F)cccc2Cl)nc1COc1ccc(C(C)(C)C)cc1 | 84 to 86
COCCOc1ccc(NC=C(C#N)C(=O)Nc2cc(OC)c(Cl)cc2Cl)cc1I | 209 to 210
CCS(=O)(=O)c1nsc(NC(=O)NC)c1C#N | 258
CCOC(=O)c1nc2scc(CN(C)Cc3ccccc3)c2c(=O)[nH]1 | 129
CC(C)=CCCC(C)=CCCC(C)=CC=CC(C)=CC(=O)O | 78.4
CCCc1c(O[C@H]2CCC[C@H](Oc3ccc(C(=O)CCC(=O)O)cc3)C2)ccc(C(C)=O)c1O (relative stereo) | 90 to 94
CS(=O)(=O)CCC(=O)Nc1ccc(OCC(O)CO)cc1 (stereo unspecified) | 160 to 162
Cc1ccc(S(=O)(=O)Oc2ccc(CN3CCOCC3)nc2)cc1 | 68 to 69
CCc1cc(C)cc(CC)c1NC(=S)NC(C)(C)CC | 98 to 101
Cc1c(O)cc2c(c1C)N(C=O)C(C)C2 (stereo unspecified) | 155 to 159
Cc1nc2c3c(c(C(=O)NCCO)cc2n1C)CCC(c1ccccc1)O3 (stereo unspecified) | 228 to 229
O=C1c2cccc([N+](=O)[O-])c2C(=O)N1c1ccc(OC(F)(F)F)cc1 | 149 to 150
COC(=O)COc1ccc(OC)cc1C(=O)OC | 66 to 68.5
C#C[C@]1(C)CCc2c(C)c(O)c(C)c(C)c2O1 | 81 to 83
CC(C)(C)Nc1cc(Cl)nc(NC(C)(C)C)n1 | 128 to 130
CCCCCCN(CCCC(=O)Nc1c(SC)nc(C)nc1N(CC)CC)c1ccc(Br)cc1 | 89.8 to 93
CC1(C)CCC(C)(C)c2cc3cc(-c4c[nH]c(C(=O)O)c4)ccc3cc21 | 234 to 238
CCOP(=O)(OCC)C1C(=O)NC(=O)N1C (stereo unspecified) | 95 to 96
N#Cc1ccc2cc(CCc3cc4ccc(C#N)cc4o3)oc2c1 | 266 to 267
CN1CCN(c2cccc3c2C[C@H](NC(=O)CCCc2ccccc2)CC3)CC1 | 137 to 139
CS(=O)(=O)c1ccc(-c2cnn(Cc3ccccc3)c(=S)c2-c2ccc(F)cc2)cc1 | 88 to 90
O=[N+]([O-])c1ccccc1OCCN1CCN(c2cc(Cl)nnc2Cl)CC1 | 125 to 126
COC(=O)c1[nH]c2c(C)ccc(C)c2c1-c1ccccc1 | 143 to 145
CCN(CC)C(=O)Oc1ccc2ccccc2c1 | 51 to 53
O=C(O)CCCCCc1nn(-c2ccccc2)c2c1CCCC2 | 95 to 97
Cc1[nH]c(=O)n(C2CCCCC2)c1-c1ccc(OCCC(C)C)cc1 | 198 to 200

Compound | melting point [°C]
C=C1CC(Cn2cc(C)c(=O)[nH]c2=O)(c2ccc(-c3ccccc3)cc2)OC1=O (stereo unspecified) | 217 to 219
O=C1N(Cc2noc(C3CC3)n2)c2cccc(Cl)c2C12COc1cc3c(cc12)OCO3 (stereo unspecified) | 180 to 182
CC(C)(C)OC(=O)C=Cc1cnc2ccccc2c1 | 128 to 129
COc1nc(OC)nc(Oc2cccc3c2C(=S)OC3C)n1 (stereo unspecified) | 177 to 178
CCC(=O)Nc1cccc2c1C(=O)N(C1(C)CCC(=O)NC1=O)C2=O (stereo unspecified) | 222 to 224
Cc1cc(-n2cnnc2)cc2ccc(=O)[nH]c12 | 369 to 371
Nc1nnc(-c2ccc(CN3CCCCCC3)s2)o1 | 232 to 234
CC(C)(OCc1coc(-c2ccc(Cl)cc2)n1)C(=O)O | 144 to 145
CCC(=O)OC1c2ccccc2C(=O)N1c1ccc2ccc(Cl)nc2n1 (stereo unspecified) | 160
CCOc1cc(C(CC(=O)CC)N2C(=O)c3cccc(NC(C)=O)c3C2=O)ccc1OC (stereo unspecified) | 137 to 139
Oc1ccc(N2CCN(c3ccncc3)CC2)cc1 | 288 to 290
COc1cc(C(C)C)c2c(c1)S(=O)(=O)N(COc1cc(C#N)nn1-c1ccc(Cl)cc1Cl)C2=O | 183 to 184
CCOC(=O)c1cnn(-c2cccc(Cl)n2)c1S(N)(=O)=O | 125 to 128
CNS(=O)(=O)c1nc2ccc(O)cc2s1 | 189 to 190
NC(=O)c1ccc(-c2ccc3nnn(Cc4ccc5ncccc5c4)c3n2)cc1 | 229 to 231
Cc1[nH]c(=O)[nH]c1C(=O)C=Cc1ccccc1 | 299
COC(=O)C(C)(C)OCC#Cc1cc(Cl)ccc1NS(=O)(=O)c1ccc(C(C)C)cc1 | 65 to 67
Cc1nn(-c2c(Cl)cc(C(F)(F)F)cc2Cl)c(Cl)c1C=O | 201
O=C(O)c1sccc1C(F)F | 119 to 120
CC(=O)Nc1c2oc3cc(Cl)ccc3c2nn1C | 290 to 300
O=C1C(c2cccc(Br)c2)n2cncc2CN1Cc1ccncc1 (stereo unspecified) | 50 to 54
NS(=O)(=O)c1cccc(NC(=O)c2cnn3c(C(F)F)cc(-c4ccc(OC(F)(F)F)cc4)nc23)c1 | 231
CCC(=O)C1=C(O)CC(c2c(C)c([N+](=O)[O-])c(C)c([N+](=O)[O-])c2C)CC1=O (stereo unspecified) | 249
CC(=O)c1nc2c(cc1F)C[C@@H]1CN(C(=O)OC(C)(C)C)C[C@@H](C)N21 | 178 to 180
CC(C)C(CN(C)c1ccccc1)NS(=O)(=O)c1c(Cl)cc(Cl)cc1Cl (stereo unspecified) | 169 to 170
O=C(O)C(CCc1ccccc1)NC1CCc2ccccc2NC1=O (stereo unspecified) | 173 to 175

Compound | melting point [°C]
OCc1nccn1CCc1ccccc1 | 75.4
O=C(O)CCCn1ccn(C2CCc3ccccc3C2)c1=S (stereo unspecified) | 156 to 158
CC(=O)c1ccc2c(c1)OC(C(N)=O)CO2 (stereo unspecified) | 212
COC(=O)CCCCc1ccc(C(=O)Cc2ccccc2)cc1 | 53.5 to 54
CC1CCN(Cc2cc(COc3cccc4c3CN(C3CCC(=O)NC3=O)C4=O)on2)CC1 (stereo unspecified) | 168 to 170
Cc1cc2c(cc1C(=O)c1ccc(C(O)=NOCc3ccccc3)cc1)C(C)(C)CCC2(C)C | 169 to 172
C=Cc1ccc([Si](C)(C)C)c(C(=O)NCC)c1Cl | 127 to 128
CCOCc1nc2c(N)nc3cc(N4CCC4=O)ccc3c2n1CCCOC(C)C | 185 to 186
CCCCNC(=O)NS(=O)(=O)c1ccn(C)n1 | 168 to 169
O=C(O)c1ccc(Oc2nccs2)cc1 | 162 to 163
CC(NC(=O)C1(C(F)(F)F)CC(C)(Cl)C1)c1ccc(Cl)cc1 (stereo unspecified) | 129 to 130
O=C1c2ccc(SCc3ccccc3)cc2C(=O)c2cc3ccccc3cc21 | 200 to 203
CCCCCCCCCCCCCCCCCCOc1ccc(N)cc1 | 95 to 97
CCCCC=C1SC(=O)N(CCCCOc2cccn3ccnc23)C1=O | 64 to 65
Cn1c(CCl)cnc1[N+](=O)[O-] | 100 to 101
Cc1[nH]cnc1/C=C/C(=O)c1c(C)oc2ccccc12 | 166 to 168
CC1(N2C(=O)c3cccc(NCc4cccc(Cl)c4)c3C2=O)CCC(=O)NC1=O (stereo unspecified) | 199 to 201
COC(=O)Cc1ccc(OCCNC(=O)C2Cc3ccccc3N2S(=O)(=O)c2ccc(-c3ccc(Cl)cc3)c(C(F)(F)F)c2)cc1 (stereo unspecified) | 60
COc1ccc2c(c1)NC(=O)N(c1ccc(Cl)cc1)S2(=O)=O | 229 to 230
CCOC(=O)CN1CCN(C(C)(C)C=CC(=O)Nc2cc3c(Nc4ccc(F)c(Cl)c4)ncnc3cc2OCC2CC2)CC1 | 165 to 167
O=C(NCC12CC3CC(CC(C3)C1)C2)c1cccnc1Sc1cc(O)ccc1O | 108 to 110
CCCCc1oc2ccccc2c1C(=O)NCc1ccc2cc(O)ccc2c1 | 155 to 156
COc1cc2c(cc1O)[nH]c1cc(-c3ccccc3Cl)c3c(c12)C(=O)NC3=O | 194 to 196
O=C(NCC1Cc2c(cccc2-c2ccccc2)O1)OCc1ccccc1 (stereo unspecified) | 132 to 134
CCCCOCCOc1ccc(-c2ccc(N3CCCCCC3)c(C=CC(=O)O)c2)cc1 | 135 to 138
CC(C)(C)C1CSC2(CCC(C=C(Br)Br)CC2)SC1 (stereo unspecified) | 143

Compound | melting point [°C]
O=C(C=P(c1ccccc1)(c1ccccc1)c1ccccc1)CCCc1ccccc1 | 93 to 95
Cc1ccc(C=CC(C#N)=NO)cc1 | 135 to 137
CCc1c(-c2ccccc2)c2c(COCCN3CCCCC3)cc3c(O)ccc1n32 | 196 to 198
Cc1cccc(-c2sc(N)nc2-c2ccnc(-c3ccc(N4CCOCC4)cc3)c2)n1 | 246
O=C(NC(Cc1ccc(OCc2ccc(Cl)cc2)cc1)C(=O)O)c1cn2ccc(-c3ccc(Cl)cc3)cc2n1 (stereo unspecified) | 261
COC(=O)C(Sc1ccc(Cl)cc1)c1ccc(Oc2ccc(Cl)cc2)cc1 (stereo unspecified) | 71 to 75
CC(C)(C)NNC(=S)c1ccccc1 | 165 to 168
O=C(NNC1=NS(=O)(=O)c2ccccc21)c1ccncc1 | 288 to 289
CN(CCCN=C(NC#N)NCCSCc1csc(NC(=N)N)n1)CCC(c1ccccc1)c1ccccn1 (stereo unspecified) | 110 to 112
C(=C\c1nc(COc2ccc(CCCCCn3ccnc3)cc2)co1)/c1ccccc1 | 101 to 102
CNC(=O)N(OC(=O)Oc1ccccc1)c1ccc(Cl)c(Cl)c1 | 93
Nc1ccc(-c2nc(-c3ccco3)no2)c(Cl)c1 | 175 to 176
CCCCCCC/C=C/C(=O)NCCC(C)C | 28 to 31
CC(=O)Oc1ccc2c(c1)Cc1cc(OC(C)=O)ccc1-2 | 168
CCOC(=O)N1C=CN(c2ccccc2)C1C#N (stereo unspecified) | 109 to 111
CS(=O)c1ncc2ccc(=O)n(C3CCCC3)c2n1 (stereo unspecified) | 170 to 173
CCOC(=O)CCCCC(=O)c1c(C)n(C(=O)OC)c(=O)n1C(=O)OC | 74 to 76
O=C(O)C[C@H](NC(=O)CNC(=O)c1csc(NC(=O)NCc2ccccc2)n1)C(=O)Nc1ccccc1C(=O)O | 192
COC(=O)CCC1(CCC(=O)OC)c2cc(N(c3ccccc3)c3cccc(C)c3)ccc2-c2ccc(N(c3ccccc3)c3cccc(C)c3)cc21 | 159 to 160
O=C1c2ccccc2-c2c1c(N1CCN(c3ccccn3)CC1)nc1ccc(Br)cc21 | 186 to 188
O=C(OCc1ccccc1)c1ccc(O)c(O)c1 | 147 to 149
OCCCc1cc(Cl)cc2nc(Cc3cccc(Cl)c3)oc12 | 87 to 89
NC1=NS(=O)N=C1NCCCN(Cc1ccccn1)c1ccccn1 (stereo unspecified) | 192 to 193
